The text below walks through data of patent US20050203482A1, “Pharmaceutical dispensing apparatus and method” (priority 2004, published 2005).

Converted amounts (≈) assume the structure as drawn.

As a reminder, the solubility is the concentration that dissolves in the medium under given conditions.

The data set can be described thus: physchem. An excerpt:
The solvents and co-solvents are listed by percentage of volume.

Regarding `C[C@H]1O[C@@H](O[C@H]2[C@@H](O)C[C@H](O[C@H]3[C@@H](O)C[C@H](O[C@H]4CC[C@@]5(C)[C@H](CC[C@@H]6[C@@H]5C[C@@H](O)[C@]5(C)[C@@H](C7=CC(=O)OC7)CC[C@]65O)C4)O[C@@H]3C)O[C@@H]2C)C[C@H](O)[C@@H]1O` [Digoxin], the concentration in solution (aqueous with cosolvent or surfactant or cyclodextrin, solvent 2-P 56%, co-solvent Water 44%, approximate) (solubility) came to 56 mg/mL (≈ 71.7 mM); the solubility (aqueous with cosolvent or surfactant or cyclodextrin, solvent 55% Water, co-solvent 45% H-107, approximate) stood at 52 mg/mL (≈ 66.6 mM); the solubility (aqueous with cosolvent or surfactant or cyclodextrin, solvent Ethanol 80%, co-solvent Water 17%, additive Glycerin 3%, approximate) came to 9 mg/mL (≈ 11.5 mM); the solubility (organic solvent or mixture, solvent 1,5-pentanediol, approximate) is less than 21.9 mg/mL; the solubility (organic solvent or mixture, solvent 2-P 80%, co-solvent Ethanol 20%, approximate) was no less than 75 mg/mL; the solubility (organic solvent or mixture, solvent 2-P 100%, approximate) is 102 mg/mL (≈ 131 mM). Besides, the solubility (organic solvent or mixture, solvent Acetone, approximate) is less than 30 mg/mL; the solubility (organic solvent or mixture, solvent DMSO 80%, co-solvent (EtOH) ethanol alcohol 20%, approximate) was 200 mg/mL (≈ 256 mM); the solubility (organic solvent or mixture, solvent Ethanol 100%, approximate) was found to be 9 mg/mL (≈ 11.5 mM); the solubility (organic solvent or mixture, solvent Ethyl acetate, approximate) was less than 16.3 mg/mL; the solubility (organic solvent or mixture, solvent Ethylene glycol (LEG), approximate) was less than 16.3 mg/mL; the solubility (organic solvent or mixture, solvent Glycerine, approximate) was less than 14.2 mg/mL. For the same compound, the solubility reads like this: (organic solvent or mixture, solvent Polyethylene glycol 400 90% Absolute ethanol 6%, co-solvent Water 1%, additive Propylene glycol 3%, approximate) 0.25 mg/mL (≈ 0.32 mM); (organic solvent or mixture, solvent Polyethylene glycols (PEGs), approximate) less than 19.3 mg/mL; (water, solvent Water, approximate) 0.024 to 0.07 mg/mL (≈ 0.0307 to 0.0896 mM).
